Laboratory results as given in paper PMC6025957, “Epidermal LysM receptor ensures robust symbiotic signalling in Lotus japonicus” (eLife, 2018).

Key:
[1] = molecular target: T1, NFR1 kinase domain (Lotus japonicus, UniProt Q70KR7); assay: radioactive kinase assay, autoradiogram; format: biochemical; settings: labelled compound ([gamma-32P]ATP); 100 µM ATP, MnCl2, MgCl2, HEPES pH 7, room temperature; NFR5 kinase domain as acceptor
T1 construct: intracellular kinase domain, pET-32 Ek/LIC, E. coli Rosetta 2, tag cleaved with TEV
T1 sequence (Q70KR7 254-623 limits assumed): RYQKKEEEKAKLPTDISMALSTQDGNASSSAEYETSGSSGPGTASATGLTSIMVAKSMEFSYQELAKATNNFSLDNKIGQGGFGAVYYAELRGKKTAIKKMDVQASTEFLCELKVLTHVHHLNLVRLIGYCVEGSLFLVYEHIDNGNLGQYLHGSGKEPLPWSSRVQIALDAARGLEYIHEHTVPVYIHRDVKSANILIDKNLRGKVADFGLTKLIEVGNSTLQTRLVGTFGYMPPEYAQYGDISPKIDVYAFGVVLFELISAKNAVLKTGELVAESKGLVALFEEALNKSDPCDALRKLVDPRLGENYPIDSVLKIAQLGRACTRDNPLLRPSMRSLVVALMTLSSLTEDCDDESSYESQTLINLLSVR

[2] = molecular target: T2, NFRe kinase domain (Lotus japonicus, UniProt A8WHB6); assay: radioactive kinase assay, autoradiogram; format: biochemical; settings: labelled compound ([gamma-32P]ATP); 100 µM ATP, MnCl2, MgCl2, HEPES pH 7, room temperature; autophosphorylation, myelin basic protein or NFR5 kinase domain as acceptor
T2 construct: gene nfr1c
T2 sequence (A8WHB6 entry or part of it): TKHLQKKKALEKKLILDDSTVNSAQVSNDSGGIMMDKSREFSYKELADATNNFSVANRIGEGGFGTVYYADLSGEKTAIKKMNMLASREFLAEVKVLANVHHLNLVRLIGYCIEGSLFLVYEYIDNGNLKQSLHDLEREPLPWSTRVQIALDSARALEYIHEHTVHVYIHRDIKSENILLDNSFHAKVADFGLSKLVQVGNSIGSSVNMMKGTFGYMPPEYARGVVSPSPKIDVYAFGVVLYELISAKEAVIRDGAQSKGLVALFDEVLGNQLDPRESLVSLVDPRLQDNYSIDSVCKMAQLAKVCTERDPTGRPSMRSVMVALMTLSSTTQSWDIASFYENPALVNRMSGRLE

[3] = molecular target: T3, AtCERK1 ectodomain (Arabidopsis thaliana, UniProt A8R7E6); assay: biolayer interferometry, steady-state; format: binding; settings: labelled compound; biotinylated (GlcNAc)5 immobilised on streptavidin sensor, protein in solution; PBS pH 7.4, 500 mM NaCl, 0.01% Tween20
T3 construct: gene CERK1; ectodomain only (borders from reported crystal structure), gp67 signal peptide, C-terminal His6, Sf9 insect cells, glycosylated, ~35 kDa
T3 sequence (A8R7E6 24-232 limits assumed): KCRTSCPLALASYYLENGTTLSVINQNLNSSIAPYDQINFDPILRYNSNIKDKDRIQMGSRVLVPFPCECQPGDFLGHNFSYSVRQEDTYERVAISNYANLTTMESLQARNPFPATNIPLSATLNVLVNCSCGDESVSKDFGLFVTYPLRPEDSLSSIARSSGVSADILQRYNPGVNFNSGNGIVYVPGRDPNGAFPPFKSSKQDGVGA

| Kd [3] [µM] | Compound | radioactive kinase assay, autoradiogram [1] | radioactive kinase assay, autoradiogram [2] |
| --- | --- | --- | --- |
|  | Nc1ncnc2c1ncn2[C@@H]1O[C@H](COP(=O)(O)OP(=O)(O)OP(=O)(O)O)[C@@H](O)[C@H]1O [ATP] | NFR1 kinase serves as positive control for NFR5 kinase transphosphorylation | NFRe kinase transphosphorylated the myelin basic protein (MBP) substrate and autophosphorylated |
| 59 | CC(=O)N[C@@H]1[C@@H](O)[C@H](O[C@@H]2O[C@H](CO)[C@@H](O[C@@H]3O[C@H](CO)[C@@H](O[C@@H]4O[C@H](CO)[C@@H](O[C@@H]5O[C@H](CO)[C@@H](O)[C@H](O)[C@H]5NC(C)=O)[C@H](O)[C@H]4NC(C)=O)[C@H](O)[C@H]3NC(C)=O)[C@H](O)[C@H]2NC(C)=O)[C@@H](CO)O[C@H]1O [CO5] |  |  |
